This note sets out measurements from patent US5891882A, “Benzopyranopyrrole and benzopyranopyridine α-1 adenergic compounds” (priority 1997, dated 1999).

Each structure is given as a SMILES string. Structures can show the parent of a compound that is named as a salt. Where two headings read alike, the source gives them in different places.

Test [1] addresses T1, α-1A adrenoreceptor (rat submaxillary gland) (Rattus norvegicus, UniProt P43140).
T1 construct: Rat submaxillary glands were used for α-1A adrenoreceptors; from tissue; host or cells: rat submaxillary gland membranes
T1 sequence (P43140 1-466): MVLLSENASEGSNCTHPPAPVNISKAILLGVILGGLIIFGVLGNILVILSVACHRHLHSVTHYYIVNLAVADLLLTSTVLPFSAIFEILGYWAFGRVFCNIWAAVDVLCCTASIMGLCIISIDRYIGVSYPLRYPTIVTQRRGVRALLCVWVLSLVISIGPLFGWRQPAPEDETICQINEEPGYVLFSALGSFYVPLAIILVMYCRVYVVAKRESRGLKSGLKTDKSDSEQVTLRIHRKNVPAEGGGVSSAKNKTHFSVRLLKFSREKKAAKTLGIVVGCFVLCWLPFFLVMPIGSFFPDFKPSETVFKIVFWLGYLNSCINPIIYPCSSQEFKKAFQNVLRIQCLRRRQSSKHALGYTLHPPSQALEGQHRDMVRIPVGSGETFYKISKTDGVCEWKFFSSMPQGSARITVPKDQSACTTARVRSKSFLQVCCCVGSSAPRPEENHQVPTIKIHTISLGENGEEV
As to the kind of experiment: In vitro [3H]-prazosin radioligand binding, pharmacologically defined α-1A adrenoreceptor (rat submaxillary gland). As to the method: Additionally, binding affinity against the pharmacologically defined α-1A adrenoreceptor (rat submaxillary gland) was measured.
(§1) On the fifth day of culture, growth medium was removed from cells grown in roller bottles, and the cells were washed twice with PBS (Sigma, 120 mM NaCl, 2.7 mM KCl, 10 mM Na2 HPO4 --NaH2 PO4, pH=7.4). Cells were detached from the roller bottles by incubating for 15 minutes at 37° C. in a Tris-EDTA solution (10 mM Tris, 100 mM NaCl, 1 mM EDTA, pH=7.4). The cell suspension from each roller bottle was decanted into tared centrifuge tubes and kept on ice. An aliquot of each cell suspension was generally taken for cell counting. Cells were centrifuged at 3000×G for 5 min at 2°-4° C., washed with PBS and recentrifuged. The supernatant was decanted and the pellet weighed to determine the wet weight of cells. Cells were washed a final time in 40 vol 5 mM Tris-HCl, 5 mM EDTA, pH=7.7, and centrifuged at 40,000×G for 10 minutes. Cells were homogenized in 10 mL of 50 mM Tris-HCl, 5 mM EDTA (pH=7.4) and diluted to 40 mL/tube. Homogenates were centrifuged at 40,000×G for 10 minutes. The supernatant was decanted and the pellets rehomogenized in 50 mM Tris-HCl (pH=7.4) and centrifuged as before. The supernatant was decanted and the homogenate resuspended in 6.25 volumes (per gram wet weight) of 50 mM Tris-HCl and aliquots of the pooled homogenates frozen in liquid N2 and stored at -70° C. until the time of assay. Rat submaxillary glands were used for α-1A adrenoreceptors and were prepared essentially as described (Michel, A. D., Loury, D. N. and Whiting, R. L., Brit. J. Pharmacol. 98: 83-889 (1989)).
(§2) Receptor binding assays for α-1 adrenoreceptors were performed essentially as described by Greengrass and Bremner (Eur. J. Pharmacol. 55: 323-326 (1979)). […] Radioactivity was determined by standard liquid scintillation techniques. Data were analyzed as previously described (Hancock, A. A., Kyncl, J. J., Martin, Y. C. and DeBernardis, J. F., J Receptor Res. 8: 23-46 (1988)).

Test [2] concerns the target T2, α-1a adrenoreceptor (bovine) (Bos taurus, UniProt P18130).
T2 construct: expressed in transfected cells; cDNA from TULCO; membranes
T2 sequence (P18130 1-466): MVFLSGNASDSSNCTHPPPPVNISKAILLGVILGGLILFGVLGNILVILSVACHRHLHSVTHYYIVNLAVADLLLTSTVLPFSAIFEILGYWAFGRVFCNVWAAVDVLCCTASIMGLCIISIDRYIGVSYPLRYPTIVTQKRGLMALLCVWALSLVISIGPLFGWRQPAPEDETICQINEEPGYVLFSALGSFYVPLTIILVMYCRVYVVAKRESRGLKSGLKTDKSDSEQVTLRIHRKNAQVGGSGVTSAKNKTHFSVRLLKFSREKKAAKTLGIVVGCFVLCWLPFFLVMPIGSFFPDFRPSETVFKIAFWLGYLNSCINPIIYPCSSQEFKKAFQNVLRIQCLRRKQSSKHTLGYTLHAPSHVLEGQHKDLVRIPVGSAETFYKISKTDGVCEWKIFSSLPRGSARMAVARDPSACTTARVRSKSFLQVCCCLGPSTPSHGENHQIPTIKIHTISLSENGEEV
As to the kind of experiment: In vitro [3H]-prazosin radioligand binding, cloned α-1a adrenoreceptor expressed in LTK cells.
Excerpt: The cDNA clones encoding the α-1 adrenoreceptors (α-1a, α-1b, and α-1d) were obtained from TULCO (Triangle Universities Licensing Consortium, Research Triangle Park, N.C.) and inserted into the eukaryotic expression vector SnaB30. In this vector, expression of the adrenoreceptor gene is under the transcriptional control of an SV40 early promoter. Positive drug selection is provided by a neomycin-resistance gene. Mouse fibroblast cells (LTK) were transfected with the α1 expression plasmids and grown in Dulbecco's modified Eagle's medium (DMEM) containing 10% fetal calf serum and […]. Stable G418-resistant parental lines were generated, with successful expression of adrenoreceptor protein monitored using radioligand binding techniques. Stable single cell clones derived from the parental lines were screened in adrenoreceptor binding assays to identify clones having high adrenoreceptor density. Roller bottle cultures of the cloned lines were used to provide cell membranes for subsequent adrenoreceptor binding characterization studies. A cell line containing the SnaB30 vector expressing the human erythropoietin gene served as a negative control.
For adrenoreceptor binding assays, large scale membrane preparations were utilized in which 6 million cells were seeded into small (450 cm^2) Corning tissue culture roller bottles. 200 mL of DMEM containing 10% fetal calf serum and 300 μM G418 were added to each roller bottle. A 95% air/5% CO2 gas mixture (sterile) was injected into each roller bottle prior to sealing. The bottles were then incubated at 37° C. on a roller rack for 5 days. Cells were re-fed with fresh medium after 3 days in culture.
as §1, §2

Where [3] appears, read: rat submaxillary gland, [3H]prazosin 0.2 nM, read-out: Radioligand Binding (Ki; nM) 1A (Rat).
The mark [4] stands for this setting: cloned bovine α-1a in LTK cells, [3H]prazosin 0.2 nM, read-out: Radioligand Binding (Ki; nM) 1a (Bovine).

Regarding `COc1cccc2c1[C@@H]1CCN(CCCCn3c(=O)[nH]c4c(sc5cccnc54)c3=O)C[C@H]1CO2` (relative stereo) [Example 88, 3-[4-((±)-trans-10-Methoxy-1,3,4,4a,5,10b-hexahydro-2H-[1]-benzopyrano[3,4-c]pyrido-3-yl)butyl]-pyrido[2',3':4,5]thieno[3,2-d]pyrimidine-2,4(1H,3H)-dione hydrochloride], the Ki (in general, a measure of affinity in units of concentration, obtained from inhibition or displacement) in test [1] was determined as 0.188 nM; in test [2], 0.11 nM.

As to `COc1cccc2c1[C@@H]1CCN(CCCCn3c(=O)[nH]c4c(sc5ccccc54)c3=O)C[C@H]1CO2` (relative stereo) [Example 87, 3-[4-((±)-trans-10-Methoxy-1,3,4,4a,5,10b-hexahydro-2H-[1]-benzopyrano[3,4-c]pyrido-3-yl)butyl]-[1]-benzthieno[3,2-d]pyrimidine-2,4(1H,3H)-dione hydrochloride], the Ki turned out to be 0.371 nM in test [1] and 0.227 nM in test [2].

Turning to `COc1cc2[nH]c(=O)n(CCN3CC[C@H]4c5c(OC)cccc5OC[C@@H]4C3)c(=O)c2cc1OC` (relative stereo) [Example 91, 3-[2-((±)-trans-10-Methoxy-1,3,4,4a,5,10b-hexahydro-2H-[1]-benzopyrano[3,4-c]pyrido-3-yl)ethyl]-6,7-dimethoxy-quinazoline-2,4(1H,3H)-dione hydrochloride], the Ki in test [1] (setting [3]) is 0.102 nM; in test [2] (setting [4]), 0.066 nM.

Turning to `COc1ccc2c(n1)sc1c(=O)n(CCCCN3C[C@@H]4COc5cccc(OC)c5[C@@H]4C3)c(=O)[nH]c12` [Example 33, hydrochloride], the Ki in test [1] (setting [3]) is 0.811 nM; in test [2] (setting [4]), 0.082 nM.
